The source of these data is ChEMBL document CHEMBL1201862, “PubChem BioAssay data set” (2004).

Structures can show the parent of a compound that is named as a salt.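 How tested: cells in 96-well plates exposed to compound for 48 hours at five concentrations. GI50 = concentration required for 50% inhibition of growth.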 Calls of active or inactive are those of the source. No stated cut-off is given here; in the data, active = GI50 up to about 1.1 µM and inactive = higher. A value given as a limit tells only on which side of the number the result lay.

Among the test systems are 786-0; ACHN; DLD-1; HCC 2998; HCT-116; HOP-18; HOP-62; HT-29; K562; MOLT-4; NCI-H226; NCI-H460; OVCAR-8; SK-MEL-28; SK-MEL-5; SK-OV-3; SN12C; SW-620; DMS-273; MDA-MB-231.
Holding throughout (assay): NCI tumour cell line growth inhibition, 48 h

Take `CCCCN(CCCC)C(=O)C(=O)C(C(=O)c1ccc(OC)cc1)c1ccc(OC)cc1` (stereo not given): the GI50 with 786-0, in the assay on ACHN, in the assay on DLD-1, in the assay on HCC 2998, in the assay on HCT-116 and with HOP-18 was > 100 µM (inactive) in each case. Further, the GI50 in the assay with HOP-62, in the assay with HT-29, in the assay on K562, in the assay with MOLT-4, in the assay on NCI-H226 and in the assay on NCI-H460 was > 100 µM (inactive) throughout. Besides, the GI50 in the assay with OVCAR-8 is > 100 µM (inactive); in the assay with SK-MEL-28 it was > 100 µM (inactive); in the assay on SK-MEL-5, 69 µM (inactive); with SK-OV-3, > 100 µM (inactive); in the assay on SN12C, > 100 µM (inactive); in the assay on SW-620 it was > 100 µM (inactive).

For the molecule `CN(C(=O)c1ccco1)C(=S)N1CCN(c2ccccn2)CC1`, the GI50 with 786-0, in the assay with ACHN, with DLD-1, in the assay with DMS-273, in the assay on HCT-116 and in the assay on HOP-18 was > 100 µM (inactive) in each case. Besides, the GI50 in the assay on HOP-62, with HT-29, in the assay with K562, with MOLT-4, with NCI-H226 and in the assay with NCI-H460 was > 100 µM (inactive) each time. Also, the GI50 in the assay with OVCAR-8, in the assay on SK-MEL-28, with SK-MEL-5, in the assay with SK-OV-3, in the assay on SN12C and in the assay with SW-620 was > 100 µM (inactive) throughout.

`CN1CCCS/C1=C1/SC(=S)N(c2ccccc2)C1=O`: the GI50 in the assay on 786-0, in the assay with ACHN, in the assay with DLD-1, in the assay with DMS-273, in the assay with HCT-116 and in the assay with HOP-18 was > 100 µM (inactive) each time. Also, the GI50 with HOP-62, in the assay on HT-29, with K562, with MOLT-4, with NCI-H226 and with NCI-H460 was > 100 µM (inactive) each time. For the same molecule, the GI50 with OVCAR-8, in the assay with SK-MEL-28, in the assay on SK-MEL-5, with SK-OV-3, in the assay with SN12C and with SW-620 was > 100 µM (inactive) throughout.

In the case of `O=C(CCC(=O)Nc1ccc(Cl)c(Cl)c1)CC(=O)c1ccc2ccccc2c1`, the GI50 in the assay with 786-0 was > 100 µM (inactive); in the assay with ACHN it was 39.8 µM (inactive); in the assay with DLD-1 it was > 100 µM (inactive); in the assay with DMS-273, 62.4 µM (inactive); with HCC 2998 it was > 100 µM (inactive); in the assay with HCT-116, > 100 µM (inactive). Also, the GI50 in the assay on HOP-18 was > 100 µM (inactive); in the assay on HOP-62, > 100 µM (inactive); with HT-29 it was 93.8 µM (inactive); in the assay on K562, 17.1 µM (inactive); in the assay with MOLT-4 it was 48.3 µM (inactive); in the assay on NCI-H226, > 100 µM (inactive). The GI50 in the assay on NCI-H460, in the assay on OVCAR-8, in the assay on SK-MEL-28, with SK-MEL-5, in the assay with SN12C and with SW-620 was > 100 µM (inactive) in each case.

Regarding `CC1=C(Cl)C=CP(=O)(Oc2ccccc2)C1` (stereo not given), the GI50 was > 100 µM (inactive) with ACHN; 27.5 µM (inactive) in the assay on DMS-273; > 100 µM (inactive) in the assay with HCC 2998; 30.8 µM (inactive) in the assay on HCT-116; 23.1 µM (inactive) with HOP-18; > 100 µM (inactive) with HOP-62. Also, the GI50 with K562 was > 10 µM (inactive); in the assay with MOLT-4, > 10 µM (inactive); in the assay on NCI-H460, 32.6 µM (inactive); in the assay with OVCAR-8, 23.3 µM (inactive); with SK-MEL-28, 26.4 µM (inactive); with SK-MEL-5, 55.6 µM (inactive). Moreover, the GI50 with SW-620 is 39.4 µM (inactive).

With `CC(C)(C)C(=O)OCC1CCC(n2cnc3c(=O)[nH]c(N)nc32)O1` (stereo not given), the GI50 in the assay with 786-0, in the assay on ACHN, in the assay on DMS-273, in the assay on HCC 2998, with HCT-116 and in the assay with HOP-18 was > 100 µM (inactive) each time. Further, the GI50 in the assay with HOP-62, in the assay on HT-29, in the assay on K562, in the assay with NCI-H226, in the assay on NCI-H460 and in the assay with OVCAR-8 was > 100 µM (inactive) each time. The GI50 with SK-MEL-28, in the assay with SK-MEL-5, in the assay on SK-OV-3, with SN12C and in the assay with SW-620 was > 100 µM (inactive) throughout.

Turning to `CC1=C2N3C[C@@H](n4c(=O)n(C)c(=O)n43)C23CCC1n1c(=O)n(C)c(=O)n13`, the GI50 in the assay with 786-0 was 35.6 µM (inactive); with ACHN, > 100 µM (inactive); in the assay on DLD-1, 69.2 µM (inactive); with DMS-273 it was 38.6 µM (inactive); in the assay on HCC 2998, 7.85 µM (inactive); in the assay on HOP-18 it was > 100 µM (inactive). The GI50 in the assay on HOP-62 is > 100 µM (inactive); with HT-29, > 100 µM (inactive); in the assay on K562, 61 µM (inactive); with MOLT-4, > 100 µM (inactive); with NCI-H226, > 100 µM (inactive); in the assay with NCI-H460 it was > 100 µM (inactive). The GI50 with OVCAR-8 is > 100 µM (inactive); with SK-MEL-28, > 100 µM (inactive); in the assay on SK-MEL-5, > 100 µM (inactive); in the assay with SN12C it was > 100 µM (inactive); in the assay on SW-620 it was 21.9 µM (inactive).

As for `Nc1ncnc2c(C3OC(CO)C(O)C3O)n[nH]c12` (stereo not given), the GI50 with DLD-1 is 0.0575 µM (active); in the assay with DMS-273 it was 0.0826 µM (active); in the assay with HCC 2998, 0.0375 µM (active); in the assay with HCT-116, 0.0767 µM (active); in the assay with HOP-18, 0.0592 µM (active); with HOP-62, 0.0509 µM (active). In addition, the GI50 was 0.0895 µM (active) with HT-29; 0.0741 µM (active) in the assay on K562; 0.0826 µM (active) with NCI-H460; 1.41 µM (inactive) with SK-MEL-5; 0.0652 µM (active) with SN12C; 0.106 µM (active) with SW-620.

For `CC[C@@]1(O)C(=O)OCc2c1cc1n(c2=O)Cc2cc3c(CN(C)C)c(O)ccc3nc2-1` [TOPOTECAN HYDROCHLORIDE], the GI50 was 0.0237 µM (active) with ACHN; 0.0191 µM (active) in the assay on DMS-273; 0.0408 µM (active) in the assay on HCT-116; 0.254 µM (active) with HOP-18; 0.0125 µM (active) with HOP-62; 0.132 µM (active) in the assay on HT-29. Besides, the GI50 is 0.0592 µM (active) in the assay with K562; 2.25 µM (inactive) in the assay on MDA-MB-231; 0.0125 µM (active) in the assay on MOLT-4; 0.0225 µM (active) with NCI-H226; 0.0163 µM (active) in the assay with NCI-H460; 0.239 µM (active) with SK-MEL-28. Besides, the GI50 in the assay on SK-MEL-5 was 0.0325 µM (active); in the assay with SN12C, 0.0214 µM (active).
